Test results from patent publication US20090042991A1, “Methods of increasing natural killer cell activity for therapy” (priority 2005, published 2009).
Values joined by “and” are separate entries in the source; they are usually repeats but may differ in a detail not shown here. Equal values may be shown once. “Also recorded” adds a separate entry of the source.

Tests used:
Sarcoma study: safety = format: in vivo, human; settings: 213 mg/m2 Compound (1) and 80 mg/m2 paclitaxel weekly
Protocol: The study is a 2 stage design, enrolling 30 patients in the first stage and adding 50 patients to total 80 if certain continuation criteria are met. Major inclusion criteria are refractory or recurrent soft tissue sarcomas other than gastrointestinal stromal tumor (GIST), with evidence of recent progression. […] For example, the compounds were administered together 3 weeks out of 4 on Days 1, 8, and 15 of a 28 day cycle as a 1 hour IV infusion. 30 Patients have been enrolled to completed accrual of Stage 1.

[1] = system: non-small cell lung carcinoma; assay: Phase 1/2 study: tumor response (RECIST) with carboplatin and paclitaxel; format: in vivo, human; settings: for Best Response / Target Lesions (percent change): one value per subject
soft tissue sarcomas = assay: Phase 2 study: tumor response with paclitaxel; format: in vivo, human
Excerpt: Major inclusion criteria are refractory or recurrent soft tissue sarcomas other than gastrointestinal stromal tumor (GIST), with evidence of recent progression. […] Best Response indicates an evaluation of the patient's tumor: PR=at least a 30% decrease in the sum of the longest diameters as compared to baseline; SD indicates less than 20% of an increase and less than 30% of a decrease in the sum of the longest diameters as compared to baseline; and PD=at least a 20% increase in the sum of the longest diameters as compared to baseline. NK Activity indicates the change in NK activity before and after dosing.

[2] = Phase 1/2 lung carcinoma study: safety; format: in vivo, human
Protocol: Phase 1 (safety/PK/MTD (maximum tolerated dose) was followed by a Phase 2 randomized two arm portion. Two dose levels were evaluated in Phase 1.
Dosing was IV q 3 weeks for up to 6 cycles in the absence of dose-limiting toxicity or progression. […] The phase 2 primary endpoint is time to progression, with secondary endpoints of response rate, survival, and quality of life. Study pharmacodynamic parameters include NK cell activity and Hsp70 level.

[3] = system: advanced metastatic melanoma; assay: 2 stage Phase 2 study: tumor response with paclitaxel; format: in vivo, human; settings: for Best Response cycle 2 week 4: one value per subject
Protocol: The higher tolerated dose level was expanded to a total of 20 patients (Stage 1). The study will continue to Stage 2 if 7 or more patients have a response of stable disease or better, or at least 2 patients have a partial response or better. A safety assessment was performed with the first 6 patients enrolled as the weekly dose schedule had not previously been studied in humans. The primary endpoint is non-progression rate (NPR) at 3 months and response rate. Pharmacodynamic parameters include pre and post-dose NK cell activity in blood and when possible, tumor biopsies. […] Best Response indicates an evaluation of the patient's tumor: SD indicates less than 20% of an increase and less than 30% of a decrease in the sum of the longest diameters as compared to baseline; and PD=at least a 20% increase in the sum of the longest diameters as compared to baseline. NK Activity indicates the change in NK activity before and after dosing.

NK cell activity = assay: NK cell cytotoxic activity of patient PBMC (K562/eGFP flow cytometry), melanoma study; format: in vivo, human; settings: for % tumor cell lysis pre-dose: baseline before dosing
Excerpt: The following procedure can be employed to assay NK cell activity in a subject. The procedure is adapted from Kantakamalakul W, Jaroenpool J, Pattanapanyasat K. A novel enhanced green fluorescent protein (EGFP)-K562 flow cytometric method for measuring natural killer (NK) cell cytotoxic activity. J Immunol Methods. 2003 Jan. 15; 272:189-197, the entire teachings of which are incorporated herein by reference.
Materials and methods: Human erythroleukaemic cell line, K562, was obtained from American Type Culture Collection (CCL-243, American Type Culture Collection, Manassas, Va.), and cultured in RPMI-1640 medium (Cat#1875-093Gibco Invitrogen Corp, Carlsbad, Calif.) supplemented with 10% heat inactivated fetal calf serum (Gibco), 2 mM L-glutamin, 100 μg/ml streptomycin and 100 IU/ml penicillin at 37° C. with 5% CO2. K562 cells were transduced with retroviral vector which encode green fluorescent protein (eGFP). Stable cell line was selected with antibiotic, G418.
The subject's peripheral blood mononuclear cells (PBMCs) were prepared by clinical study sites and received in BD Vacutainer Cell Preparation Tube with sodium heparin (Product Number: 362753, Becton Dickinson, Franklin Lakes, N.J.).
Effector cells alone and target cells alone were used as controls. All tubes were incubated at 37° C. with 5% CO2 for about 3.5 hr. Ten microliters of propidium iodide (PI) at a concentration of 1 mg/mL was added t each tube including effector and target control tubes and then incubated at room temperature for 15 min.
Cytotoxic activity was analyzed with a FACSCalibur flow cytometer (Becton Dickinson). Linear amplification of the forward and side scatter (FSC/SSC) signals, as well as logarithmic amplification of eGFP and PI emission in green and red fluorescence were obtained. Ten thousand events per sample tube with no gating for acquisition were collected for analysis. Data analysis for two-parameter dot plots for eGFP versus PI was performed using CELLQuest (Becton Dickinson Biosciences) software to enumerate live and dead target cells. Debris and dead cells were excluded by setting a threshold of forward light scatter.
The study will continue to Stage 2 if 7 or more patients have a response of stable disease or better, or at least 2 patients have a partial response or better. A safety assessment was performed with the first 6 patients enrolled as the weekly dose schedule had not previously been studied in humans. The primary endpoint is non-progression rate (NPR) at 3 months and response rate. Pharmacodynamic parameters include pre and post-dose NK cell activity in blood and when possible, tumor biopsies.
Best Response indicates an evaluation of the patient's tumor: SD indicates less than 20% of an increase and less than 30% of a decrease in the sum of the longest diameters as compared to baseline; and PD=at least a 20% increase in the sum of the longest diameters as compared to baseline. NK Activity indicates the change in NK activity before and after dosing.

[4] = Paclitaxel 175 + Cmpnd (1) 233 mg/M^2 (carboplatin AUC 6)
[5] = Paclitaxel 200 + Cmpnd (1) 266 mg/M^2 (carboplatin AUC 6)
[6] = Paclitaxel 80 + Cmpnd (1) 106 mg/M^2 weekly, Effector/Target 80:1, one value per subject
[7] = Paclitaxel 80 + Cmpnd (1) 213 mg/M^2 weekly, Effector/Target 80:1, one value per subject
[8] = Paclitaxel 80 + Cmpnd (1) 213 mg/M^2 weekly, Effector/Target (40:1), subject 15

CN(NC(=O)CC(=O)NN(C)C(=S)c1ccccc1)C(=S)c1ccccc1 [Compound (1)]
tolerability of addition of Compound (1) to weekly paclitaxel schedule (Sarcoma study: safety): well-tolerated
time-to-progression (Kaplan-Meier, FIG. 2) ([1]; Compound (1) with paclitaxel and carboplatin versus platin/taxane combinations, preliminary data): superior to the platin/taxane combination alone; also recorded: superior to prior platin/taxane combinations alone
Best Response [1, 4]: PR (at least a 30% decrease in the sum of the longest diameters as compared to baseline); also recorded: SD (less than 20% of an increase and less than 30% of a decrease in the sum of the longest diameters as compared to baseline)
Target Lesions (percent change) [1, 4]: −34% and −24% and −62% and −5.9% and −30% and −67%
Best Response [1, 5]: PR (at least a 30% decrease in the sum of the longest diameters as compared to baseline)
Target Lesions (percent change) [1, 5]: −38% and −44%
patients achieving a partial response (PR) ([1]; Phase 1, eight of sixteen patients, with carboplatin and paclitaxel): 50%
target lesion size ([1]; each patient completing the study (#1-#8)): substantial decrease
patients with best response of at least a 30% decrease in sum of longest diameters ([1]; of the 8 patients completing the study): 5 patients
Best Response cycle 2 (soft tissue sarcomas; Paclitaxel 80 + Cmpnd (1) 213 mg/M^2 weekly, one value per subject): SD (less than 20% of an increase and less than 30% of a decrease in the sum of the longest diameters as compared to baseline); also recorded: PD (at least a 20% increase in the sum of the longest diameters as compared to baseline)
patients with at least a 20% increase in sum of longest diameters (PD) (soft tissue sarcomas; patients completing the study (#23-#29, #31-33)): five patients
serious effects specifically attributable to Compound (1) (35 patients, 8 dose levels, with paclitaxel IV every 3 weeks): No serious effects
tolerability of the combination (Phase I, with paclitaxel, adverse events consistent with those expected for paclitaxel alone): well-tolerated
first cycle dose-limiting toxicities ([2]; Phase 1, Cohorts 1 and 2, 16 patients, with carboplatin AUC 6 and paclitaxel): No first cycle dose-limiting toxicities
adverse effects (AEs) ([2]; Phase 1, usually Grade 1-2, with carboplatin and paclitaxel): arthralgia and myalgia, peripheral neuropathy, rash, nausea, and vomiting, fatigue, alopecia, edema, dehydration, constipation, and decreased blood counts
tolerability of carboplatin:paclitaxel:Compound (1) combination ([2]; at the dose levels studied, safety profile similar to carboplatin:paclitaxel alone): well tolerated
non-progression rate (NPR) at 3 months ([3]; 20 evaluable patients, Stage 1): 55%
Best Response cycle 2 week 4 ([3]; Paclitaxel 80 + Cmpnd (1) 106 mg/M^2 weekly): SD (less than 20% of an increase and less than 30% of a decrease in the sum of the longest diameters as compared to baseline); also recorded: PD (at least a 20% increase in the sum of the longest diameters as compared to baseline)
Best Response cycle 2 week 4 ([3]; Paclitaxel 80 + Cmpnd (1) 213 mg/M^2 weekly): SD (less than 20% of an increase and less than 30% of a decrease in the sum of the longest diameters as compared to baseline); also recorded: PD (at least a 20% increase in the sum of the longest diameters as compared to baseline)
patients stable at 3 months ([3]; of 20 evaluable patients, Stage 1): 11 patients
patients with at least a 20% increase in sum of longest diameters (PD) ([3]; patients completing the study (#12-#20, #22)): seven patients
% tumor cell lysis post-dose (NK cell activity; Paclitaxel 80 + Cmpnd (1) 106 mg/M^2 weekly, 7 days after second dose, Effector/Target 80:1, one value per subject): 7.74% and 2.43%
NK activity (change before and after dosing) (NK cell activity; [6]): increase; also recorded: decrease
% tumor cell lysis post-dose (NK cell activity; Paclitaxel 80 + Cmpnd (1) 213 mg/M^2 weekly, 7 days after second dose, Effector/Target 80:1, one value per subject): 10.77% and 19.78% and 26.52% and 8.64% and 18.77% and 5.2% and 26.31% and 7.2%
NK activity (change before and after dosing) (NK cell activity; [7]): increase; also recorded: no change; also recorded: decrease
% tumor cell lysis post-dose (NK cell activity; [8]): 10.01%
NK activity (change before and after dosing) (NK cell activity; [8]): (increase)
% tumor cell lysis pre-dose (NK cell activity; [6]): 2.32% and 6.13%
% tumor cell lysis pre-dose (NK cell activity; [7]): 3.83% and 19.71% and 41.61% and 8.6% and 24.76% and 16.49% and 15.4% and 10.81%
% tumor cell lysis pre-dose (NK cell activity; [8]): 3.5%
patients with statistically significant increase in NK cell activity pre- to post-dose (NK cell activity; original patients of Table 3): four of the original patients
